In ChEMBL document CHEMBL1201862, “PubChem BioAssay data set” (2004):
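In this assay, cells in 96-well plates receive the compound at five concentrations for 48 hours. Endpoints are linearly interpolated between the surrounding concentrations. At the GI50, growth is halved.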 Calls of active or inactive are those of the source. Cut-off read from the data, not from the text of the source: active = GI50 up to about 1.1 µM and inactive = higher.

Assays:
Experiment in all cases: DTP human tumour cell line panel, 48 h
A549 = test system: A549
SK-MEL-28 = test system: SK-MEL-28
SNB-19 = test system: SNB-19
OVCAR-8 = test system: OVCAR-8
M19-MEL = test system: M19-MEL
SNB-75 = test system: SNB-75
HCT-116 = test system: HCT-116
SF-295 = test system: SF-295
HCC 2998 = test system: HCC 2998
Malme-3M = test system: Malme-3M
M14 = test system: M14
NCI-H226 = test system: NCI-H226
786-0 = test system: 786-0
EKVX = test system: EKVX
HOP-62 = test system: HOP-62
LXFL 529 = test system: LXFL 529
CAKI-1 = test system: CAKI-1
SK-MEL-2 = test system: SK-MEL-2
OVCAR-3 = test system: OVCAR-3
SF-539 = test system: SF-539
LOX IMVI = test system: LOX IMVI
SK-MEL-5 = test system: SK-MEL-5
ACHN = test system: ACHN
OVCAR-4 = test system: OVCAR-4
HOP-92 = test system: HOP-92
COLO 205 = test system: COLO 205
SF-268 = test system: SF-268
SN12C = test system: SN12C
KM-20L2 = test system: KM-20L2
IGROV-1 = test system: IGROV-1
NCI-H522 = test system: NCI-H522
TK-10 = test system: TK-10
MOLT-4 = test system: MOLT-4
A498 = test system: A498
CCRF-CEM = test system: CCRF-CEM
HCT-15 = test system: HCT-15
RXF 393 = test system: RXF 393
DLD-1 = test system: DLD-1
SR = test system: SR
UO-31 = test system: UO-31
DMS-273 = test system: DMS-273
HOP-18 = test system: HOP-18
SNB-78 = test system: SNB-78
SK-OV-3 = test system: SK-OV-3
U-251 = test system: U-251
NCI-H460 = test system: NCI-H460
XF498 = test system: XF498
K562 = test system: K562
HT-29 = test system: HT-29
NCI-H23 = test system: NCI-H23
KM12 = test system: KM12
OVCAR-5 = test system: OVCAR-5
UACC-62 = test system: UACC-62
UACC-257 = test system: UACC-257
SW-620 = test system: SW-620
HL-60 = test system: HL-60

SMILES: C=CCCn1nc(-c2ccccc2)oc1=O
- GI50 (A549): > 100 µM (inactive)
- GI50 (SK-MEL-28): > 100 µM (inactive)
- GI50 (SNB-19): > 100 µM (inactive)
- GI50 (OVCAR-8): > 100 µM (inactive)
- GI50 (M19-MEL): > 100 µM (inactive)
- GI50 (SNB-75): > 100 µM (inactive)
- GI50 (HCT-116): > 100 µM (inactive)
- GI50 (SF-295): > 100 µM (inactive)
- GI50 (HCC 2998): > 100 µM (inactive)
- GI50 (Malme-3M): > 100 µM (inactive)
- GI50 (M14): > 100 µM (inactive)
- GI50 (NCI-H226): > 100 µM (inactive)
- GI50 (786-0): > 100 µM (inactive)
- GI50 (EKVX): > 100 µM (inactive)
- GI50 (HOP-62): > 100 µM (inactive)
- GI50 (LXFL 529): > 100 µM (inactive)
- GI50 (CAKI-1): > 100 µM (inactive)
- GI50 (SK-MEL-2): > 100 µM (inactive)
- GI50 (OVCAR-3): > 100 µM (inactive)
- GI50 (SF-539): > 100 µM (inactive)
- GI50 (LOX IMVI): > 100 µM (inactive)
- GI50 (SK-MEL-5): > 100 µM (inactive)
- GI50 (ACHN): > 100 µM (inactive)
- GI50 (OVCAR-4): > 100 µM (inactive)
- GI50 (HOP-92): > 100 µM (inactive)
- GI50 (COLO 205): > 100 µM (inactive)
- GI50 (SF-268): > 100 µM (inactive)
- GI50 (SN12C): > 100 µM (inactive)
- GI50 (KM-20L2): > 100 µM (inactive)
- GI50 (IGROV-1): > 100 µM (inactive)
- GI50 (NCI-H522): > 100 µM (inactive)
- GI50 (TK-10): > 100 µM (inactive)
- GI50 (MOLT-4): > 100 µM (inactive)
- GI50 (A498): > 100 µM (inactive)
- GI50 (CCRF-CEM): > 100 µM (inactive)
- GI50 (HCT-15): > 100 µM
- GI50 (RXF 393): > 100 µM (inactive)
- GI50 (DLD-1): > 100 µM (inactive)
- GI50 (SR): > 100 µM (inactive)
- GI50 (UO-31): > 100 µM (inactive)
- GI50 (DMS-273): > 100 µM (inactive)
- GI50 (HOP-18): > 100 µM (inactive)
- GI50 (SNB-78): > 100 µM (inactive)
- GI50 (SK-OV-3): > 100 µM (inactive)
- GI50 (U-251): > 100 µM (inactive)
- GI50 (NCI-H460): > 100 µM (inactive)
- GI50 (XF498): > 100 µM (inactive)
- GI50 (K562): > 100 µM (inactive)
- GI50 (HT-29): > 100 µM (inactive)
- GI50 (NCI-H23): > 100 µM (inactive)
- GI50 (KM12): > 100 µM (inactive)
- GI50 (OVCAR-5): > 100 µM (inactive)
- GI50 (UACC-62): > 100 µM (inactive)
- GI50 (UACC-257): > 100 µM (inactive)
- GI50 (SW-620): > 100 µM (inactive)
- GI50 (HL-60): > 100 µM (inactive)
